Seven compounds from patent US20090137499A1, “BENZYLPHENYL GLUCOPYRANOSIDE DERIVATIVE” (priority 2006, published 2009) can be followed below.

By IC50 is commonly meant the point on the concentration scale where inhibition reaches its midpoint.

In the test the target is T1, human SGLT2 (Homo sapiens, UniProt P31639).
T1 construct: expressed in transfected cells
T1 sequence (P31639 1-672): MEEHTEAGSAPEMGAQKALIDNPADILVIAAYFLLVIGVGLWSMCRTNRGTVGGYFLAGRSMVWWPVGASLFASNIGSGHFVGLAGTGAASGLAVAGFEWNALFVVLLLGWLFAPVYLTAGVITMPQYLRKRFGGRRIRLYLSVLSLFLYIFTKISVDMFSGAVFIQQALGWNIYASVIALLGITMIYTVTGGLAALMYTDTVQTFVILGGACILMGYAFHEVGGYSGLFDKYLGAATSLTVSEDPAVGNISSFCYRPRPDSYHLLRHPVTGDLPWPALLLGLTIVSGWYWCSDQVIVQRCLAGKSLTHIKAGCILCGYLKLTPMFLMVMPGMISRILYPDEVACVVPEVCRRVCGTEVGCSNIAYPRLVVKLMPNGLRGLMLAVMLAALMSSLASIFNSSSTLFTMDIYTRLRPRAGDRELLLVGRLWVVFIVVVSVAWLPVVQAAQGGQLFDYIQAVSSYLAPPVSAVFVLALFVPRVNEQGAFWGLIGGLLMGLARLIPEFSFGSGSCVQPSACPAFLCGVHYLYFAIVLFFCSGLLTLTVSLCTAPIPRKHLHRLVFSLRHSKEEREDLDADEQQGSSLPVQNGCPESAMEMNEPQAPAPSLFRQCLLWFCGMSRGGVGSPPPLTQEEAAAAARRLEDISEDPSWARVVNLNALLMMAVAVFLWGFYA
The test is described as follows: Determination of SGLT2 inhibiting activity using human SGLT2 expressing cell ([14C]-α-methyl-D-glucopyranoside uptake). Format: cell-based. The note with it: HEK-SGLT2 cells, 1 mM [14C]-α-methyl-D-glucopyranoside, 37° C., 30 min. The protocol: Determination of SGLT2 Inhibiting Activity Using Human SGLT2 Expressing Cell
1) Preparation of Vector Expressing Human SGLT2 cDNA in Animal Cell
Amplification was performed by PCR using human SGLT2 cDNA clone (Origene: Clone Number, TC303267; GenBank accession number, NM 003041) as a template. The sense oligonucleotide primer for PCR was 5′-[…]-3′ (Primer 3: SEQ ID NO: 3 in the sequence listing),
and the antisense oligonucleotide primer was 5′-[…]-3′ (Primer 4: SEQ ID NO: 4 in the sequence listing). The PCR product was subjected to agarose electrophoresis, then a target DNA fragment was recovered from a single band corresponding to 2037 bases, digested with restriction enzymes HindIII and XhoI, and introduced into the HindIII/XhoI site of vector pCMV-Script (Stratagene) to obtain SGLT2 expressing plasmid pCMV-SGLT2. A HindIII/XhoI fragment was excised from pCMV-SGLT2 and introduced into the BamHI/XhoI site of pENTR1A (Gateway, Invitrogen) to prepare pENTR-SGLT2. Retrovirus vector pLPCX (Clontech) into which Gateway Vector Conversion System Cassette A (Invitrogen) was introduced was used as the destination plasmid to prepare SGLT2 expressing retrovirus vector pLPCX-SGLT2.
2) Establishment of Human SGLT2 Expressing Cell
The retrovirus pLPCX-SGLT2 obtained in 1) was transfected into integrin αvβ3 expressing HEK-293 cells, the cells were treated with antibiotic G418 (brand name, Geneticin: Invitrogen) and puromycin (Clontech) to obtain HEK-SGLT2 cells stably expressing the target vector having resistance. The stably expressing cells were cultured and maintained in DMEM medium containing […] G418, […] puromycin, 3 mM KGT-1075, and 10% FBS.
3) Determination of SGLT2 Inhibiting Activity
HEK-SGLT2 cells were suspended at a density of 10^6 cells/mL in DMEM medium containing 250 mg/mil G418, 1 mg/ml puromycin, and 10% FBS, and 100 μL was seeded in each well of a type 1 collagen-coated 96-well culture plate (Corning). On the following day, the medium was replaced with a sugar uptake buffer (10 mM HEPES [pH 7.5], 5 mM Tris-HCl [pH 7.5], 140 mM NaCl, 2 mM KCl, 1 mM CaCl2, 1 mM MgCl2), and the cells were cultured with 1 mM [^14C]-α-methyl-D-glucopyranoside (0.1 mCi) and a test compound at 37° C. for 30 min, and then washed 3 times with a washing buffer (10 mM HEPES (pH 7.5), 5 mM Tris-HCl (pH 7.5), 140 mM choline chloride, 2 mM KCl, 1 mM CaCl2, 1 mM MgCl2). 100 μL of liquid scintillation cocktail (brand name, Supermix: Perkin-Elmer) was added to each well of the 96-well plate and stirred for 10 min, and then radioactivity was determined with micro β (Perkin-Elmer), a type of liquid scintillation counter. The value obtained by deducting the radioactivity in the presence of an excess amount of an SGLT2 inhibiting compound as the background from each measured value was taken as the sugar uptake activity, the inhibition rate (%) was calculated from the control sugar uptake activity obtained without using a test compound and the sugar uptake activity obtained using a test compound having a predetermined concentration, and the concentrations of the test compound at which the sugar uptake activity was inhibited by 50% were assessed.
As to `COc1ccc(Cc2c(Cl)cc(CO)cc2O[C@@H]2O[C@](C)(CO)[C@@H](O)[C@H](O)[C@H]2O)cc1` [Example 55, 3-Chloro-5-hydroxymethyl-2-(4-methoxybenzyl)phenyl 5-C-methyl-β-D-glucopyranoside], 10 nM corresponded to half-maximal inhibition (IC50).

`COc1ccc(Cc2c(Cl)cc(CO)cc2O[C@@H]2O[C@H](CO)[C@@](C)(O)[C@H](O)[C@H]2O)cc1` [Example 56, 3-Chloro-5-hydroxymethyl-2-(4-methoxybenzyl)phenyl 4-C-methyl-β-D-glucopyranoside] yielded an IC50 of 11 nM.

In turn, `COc1ccc(Cc2ccc(N)cc2O[C@@H]2O[C@H](CO)[C@@](C)(O)[C@H](O)[C@H]2O)cc1` [Example 64, 5-Amino-2-(4-methoxybenzyl)phenyl 4-C-methyl-β-D-glucopyranoside] had a 50% inhibitory concentration (IC50) of 13 nM.

Compound `COc1ccc(Cc2ccc(N)cc2O[C@@H]2O[C@H](CO)C[C@H](O)[C@H]2O)cc1` [Example 65, 5-Amino-2-(4-methoxybenzyl)phenyl 4-deoxy-β-D-glucopyranoside] gave an IC50 of 20 nM.

As for `COc1ccc(Cc2c(F)cc(CO)cc2O[C@@H]2O[C@H](CO)C[C@H](O)[C@H]2O)cc1` [Example 85, 3-Fluoro-5-hydroxymethyl-2-(4-methoxybenzyl)phenyl 4-deoxy-β-D-glucopyranoside], the half-inhibitory concentration (IC50) was 20 nM.

The compound `COc1ccc(Cc2c(Cl)cc(CO)cc2O[C@@H]2O[C@H](CO)C[C@H](O)[C@H]2O)cc1` [Example 86, 3-Chloro-5-hydroxymethyl-2-(4-methoxybenzyl)phenyl 4-deoxy-β-D-glucopyranoside] returned an IC50 of 19 nM.

Turning to `CCOc1ccc(Cc2ccc(COC(=O)CO)cc2O[C@@H]2O[C@H]([C@@H](C)O)[C@@H](O)[C@H](O)[C@H]2O)cc1` [Example 99, 5-Hydroxyacetyloxymethyl-2-(4-ethoxybenzyl)phenyl 7-deoxy-D-glycero-β-D-gluco-heptopyranoside], the IC50 was 272 nM.
